Columns and labels:
[1] = biological target: T1, CRM1 (Homo sapiens, UniProt O14980); test: RevGFP assay: inhibition of CRM1 mediated nuclear export; format: cell-based; details: U2OS-RevGFP cells, ~1 hr with compound; read-out: Rev Export [IC50]
T1 construct: endogenous in cells; host or cells: U2OS-RevGFP cells
Description: The inhibition of CRM1 mediated nuclear export by compounds of the invention was determined. The inhibitory activity of compounds for the CRM1 protein was determined in the RevGFP assay.
Experimental protocol: Rev is a protein from human immunodeficiency virus type 1 (HIV-1) and contains a nuclear export signal (NES) in its C-terminal domain and a nuclear localization signal (NLS) in its N-terminal domain. Nuclear export of Rev protein is dependent on the classical NES/CRM1 pathway (Neville et al, 1997, Kau et al, 2003). Nuclear accumulation of Rev is observed in cells treated with specific inhibitors of CRM1, such as LMB (Kau et al, 2003). In this assay, U2OS-RevGFP cells are seeded onto clear-bottom, black, 384-well plates the day before the experiment. Compounds are serially diluted 1:2 starting from 40 μM in a separate 384-well plate in DMEM, and then transferred onto cells. Cells are incubated with compound for ˜1 hr before fixation with 3.7% formaldehyde and nuclei staining with Hoechst 33258. The amount of GFP in cell nuclei was measured and compound IC50s were determined (Kau et al, 2003).

[2] = Pharmacokinetics (plasma AUC) in mice; format: in vivo; details: mouse, 10 mg/kg po
Description: Blood was collected from mice (N=3) to contribute to the total of 10 time points (pre-dose, 5 min, 15 min, 30 min, 1 hour, 2 hours, 4 hours, 8 hours, 12 hours and 24 hours post dose). Mice were bled on a rotating basis, each mouse contributing 3 time points to the blood collection. At the designated time points, animals were anaesthetized under isoflurane, and approximately 110 μL of blood per time point was collected via retro-orbital puncture into pre-cooled K2EDTA (anti-coagulant) tubes. Blood samples were put on wet ice and centrifuged (2000 g, 5 min at 4° C.) to obtain plasma within 30 minutes of sample collection. All samples were stored frozen at approximately −80° C. until analysis. Prior to analysis, samples were mixed with internal standard (dexamethasone) in acetonitrile, vortexed, centrifuged, and supernatant was injected for analysis. Concentration of compounds in plasma was determined using LC-MS-MS instrumentation (API 4000, Triple Quadruple with electrospray ionization; Acuity Ultra Performance Liquid Chromatography column C18, with MeOH and formic acid as organic solvents). PK parameters including but not limited to Tmax, Cmax, t1/2, AUClast, AUCinf were calculated using WinNonlin Professional 6.2 software package, non-compartmental pharmacokinetic model NCA200.

[3] = Pharmacokinetics (plasma AUC) in rats; format: in vivo; details: rat, 10 mg/kg po
[4] = MTT Cell Proliferation Assay (CellTiter 96 AQueous One Solution, MTS); format: cell-based; details: human; 72 h treatment; cell line not given; read-out: Cytotoxicity [IC50]
Text: The CellTiter 96® AQueous One Solution cell proliferation assay (Promega) was used on MM1.S, Jurkat and HCT-116 cells to study the cytotoxic and cytostatic properties of the compounds. The assay is based on the cleavage of the tetrazolium salt, MTS, in the presence of an electron-coupling reagent PES (phenazine ethosulfate). The MTS tetrazolium compound is bioreduced by cells into a colored formazan product that is soluble in tissue culture medium. This conversion is presumably accomplished by NADPH or NADH produced by dehydrogenase enzymes in metabolically active cells. Assays are performed by adding a small amount of the CellTiter 96® AQueous One solution reagent directly to culture wells, incubating for 1-4 hours and then recording the absorbance at 490 nm with a 96-well plate reader. […] The cells were seeded at 5×10^3 to 1.5×10^4 cells (depending on cell type) in each well of 96-well plate in 100 μL of fresh culture medium and adherent cells were allowed to attach for overnight. The stock solutions of the compounds were diluted in cell culture medium to obtain eight concentrations of each drug, ranging from 1 nM to 30 μM and DMSO at less than 1% v/v was used as a negative control. After 72 h of treatment 20 μl of CellTiter 96® AQueous reagent was added into each well of the 96-well assay plates and the plate was incubate at 37° C. for 1-4 hours in a humidified, 5% CO2 atmosphere. Then the absorbance of each well was recorded at 490 nm by using a 96-well plate reader. In most cases the assay was performed in triplicates and the results were presented as half maximal inhibitory concentration (IC50) described below. Optical density versus compound concentration was plotted and analyzed using non linear regression equations (Excel Fit) and the IC50 for each compound was calculated.

[5] = tested on: IMQ-induced psoriasis; test: Imiquimod (IMQ)-induced dermal inflammation/psoriasis model (Study 2); format: in vivo, BALB/c mice; details: Compound 2 2.5 mg/kg sc, cyclophosphamide 10 mg/kg oral
Description: Forty (40) male BALB/c mice (Biological E Limited, Hyderabad (CPCSEA registration number: 36/99/CPCSEA)) were divided into four (4) groups consisting of ten (10) mice each. Animals were randomized based on their body weight. The groups were designated as Group-I (Nave), Group-II (IMQ; vehicle (PEG 400 and HPBCD)), Group-III (IMQ; Compound 2 (2.5 mg/kg)) and […] (IMQ; cyclophosphamide (10 mg/kg)).
A small area on the dorsum of each mouse was shaved, ensuring that these areas were of equal size/area. Psoriasis was induced in Groups II to IV by topical application of 50 mg of IMQ cream daily from Day 1 to Day 6 on the dorsum of the animals. On Day 1 and Day 2 of the study, four hours after topical application of IMQ, Compound 2 or positive control (cyclophosphamide) or vehicle were administered to animals in pertinent groups. Of note, animals in Group II and Group III were subjected to subcutaneous injections, whereas animals in Group IV received oral administration. The Compound 2, vehicle and cyclophosphamide treatment was terminated on Day 2. These groups of animals were maintained on daily IMQ treatments until Day 6. On Day 7, the psoriasis-induced animals were re-randomized into 3 groups consisting of 10 animals each based on Cumulative Disease Activity Index (CDAI). From Day 7 to Day 9, animals received vehicle or positive control or Compound 2. Of note, on these days animals were not treated with IMQ. From Day 10 to Day 14, the animals were treated alternatively with IMQ (Days 10, 12 and 14), or vehicle, positive control or Compound 2 (Days 11, 13).
All animals were observed daily for a period of […] for gross observations, body weight and feed and water intake. On Days 1 and 2, scorings of erythema, scaling, folding and thickening of skin were recorded 2 hours after administration of vehicle/positive control/test compounds, and on Days 3 to 14 scorings were recorded 4 hours after IMQ application, or administration of positive control, vehicle or Compound 2.
Vehicle was prepared by dissolving 40 mg of HPBCD in 70.0 mL of distilled water. Compound 2 was prepared by dissolving 3.59 mg in 0.5% PVP and 0.5% Pluronic. Cyclophosphamide was prepared by dissolving 500 mg of CMC in 100 mL distilled water.
The experimental results shown in Table 10 are expressed as mean±SEM. Data was assessed using one-way ANOVA, and post hoc analysis was performed using Dunnett's test.

[6] = Brain to plasma ratio (B:P) in rats; format: in vivo; details: 10 mg/kg po
Description: Brain tissue following collection was rinsed with cold saline, dried on filter paper, weighed and snap-frozen by placing on dry ice. All samples were stored frozen at approximately −80° C. until analysis. […] Plasma samples were treated with the identical method (except homogenization step) and concentration of compound in either matrix was calculated based on the generated standard curves.

[7] = tested on: A549 xenograft tumors; test: A549 lung carcinoma xenograft model; format: in vivo, CB-17 SCID mice; details: cisplatin 5 mg/kg IP (positive control)
Description: The A549 cell line was derived from explant culture of alveolar carcinoma tissue from a person. The cells were grown in Ham's F12-K tissue culture media with 10% fetal calf serum and 1% penicillin/streptomycin. Cells were routinely trypsinized and passaged 1:10. Thirty-two (32) female CB-17 SCID mice (Charles River Labs strain code 236), aged 5 to 6 weeks were used with a mean pre-treatment body weight of 16.3 grams. Mice were divided into four (4) groups of eight (8) prior to the initiation of treatment based on tumor volume. On the day of implantation, cells were washed in PBS, trypsinized and resuspended in complete media to a density of 2×10^7 cells/mL prior to being mixed with an equal volume of Matrigel. This mixture was then inoculated subcutaneously into mice in a volume of 0.1 mL using a 23 G needle.
Animal weights and condition were recorded daily, and tumors were measured on Mondays, Wednesdays and Fridays with micro-calipers, and tumor volume was calculated as (length×width×width)/2.
Animals with weight loss of more than 20% of their starting weight were euthanized. Mice with weight loss of more than 15% of their starting weight were not treated again until weight loss recovered to less than 5% of their starting weight. Any animals with a tumor volume of more than 1500 mm^3 were euthanized.
Dosing solutions were prepared fresh on each day of dosing. Compound 2 was supplied as a lyophilized powder containing 69.61% Compound 2 with the balance made up of Pluronic F-68 and PVP K29/32. This was prepared by dissolving the lyophilized powder in sterile water. Cisplatin was dissolved at 5 mg/mL in DMSO and diluted 1:10 in sterile water for injection. All test articles were administered in a volume of 0.1 mL/10 g body weight.
Statistical differences between treatment groups were determined using Mann-Whitney Rank Sum or ANOVA tests with a critical value of 0.05.

T1 sequence (O14980 whole entry): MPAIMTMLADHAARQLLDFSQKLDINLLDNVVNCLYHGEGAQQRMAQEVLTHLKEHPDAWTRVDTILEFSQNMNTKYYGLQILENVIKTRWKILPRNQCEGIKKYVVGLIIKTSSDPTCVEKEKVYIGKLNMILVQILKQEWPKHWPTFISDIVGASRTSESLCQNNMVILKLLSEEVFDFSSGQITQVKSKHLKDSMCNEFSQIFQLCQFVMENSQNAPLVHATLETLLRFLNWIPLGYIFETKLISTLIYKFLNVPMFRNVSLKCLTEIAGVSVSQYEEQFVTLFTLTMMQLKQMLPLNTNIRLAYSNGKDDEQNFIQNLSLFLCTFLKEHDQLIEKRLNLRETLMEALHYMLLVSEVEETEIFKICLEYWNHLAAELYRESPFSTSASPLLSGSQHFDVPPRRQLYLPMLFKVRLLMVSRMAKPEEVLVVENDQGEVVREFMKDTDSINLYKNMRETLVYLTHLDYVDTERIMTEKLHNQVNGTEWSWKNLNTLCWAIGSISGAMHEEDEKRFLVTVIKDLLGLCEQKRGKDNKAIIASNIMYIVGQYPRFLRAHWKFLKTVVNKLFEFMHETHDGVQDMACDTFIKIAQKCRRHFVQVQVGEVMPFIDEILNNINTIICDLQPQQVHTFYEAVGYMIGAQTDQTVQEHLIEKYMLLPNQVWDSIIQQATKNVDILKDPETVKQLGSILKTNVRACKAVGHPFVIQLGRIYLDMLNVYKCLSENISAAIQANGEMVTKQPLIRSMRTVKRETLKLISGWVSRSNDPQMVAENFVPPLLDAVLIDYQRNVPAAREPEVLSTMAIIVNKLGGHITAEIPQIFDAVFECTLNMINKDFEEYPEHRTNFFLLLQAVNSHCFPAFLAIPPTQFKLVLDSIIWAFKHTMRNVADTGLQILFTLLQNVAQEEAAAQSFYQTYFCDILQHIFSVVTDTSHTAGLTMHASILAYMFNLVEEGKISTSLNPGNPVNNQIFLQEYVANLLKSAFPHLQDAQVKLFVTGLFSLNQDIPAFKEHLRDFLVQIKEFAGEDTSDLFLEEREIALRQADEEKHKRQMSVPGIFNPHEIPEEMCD

| SMILES | IC50 [1] | AUC(0-inf) [3] | IC50 at 72 h [4] | other results |
| --- | --- | --- | --- | --- |
| O=C(/C=C\n1cnc(-c2cc(C(F)(F)F)cc(C(F)(F)F)c2)n1)N1CC(F)(F)C1 [Compound X-3, reference compound] | < 1 µM | 12300 ng·h/mL | < 1 µM | AUC(0-inf) [2]: 12300 ng·h/mL |
| O=P1(N(CCCl)CCCl)NCCCO1 (stereo not drawn) [cyclophosphamide, reference compound] |  |  |  | Rate of reduction of DAI, % change from 1st dose administration ([5]; Day 7, pre-IMQ/drug administration readings): 0.0%; Rate of reduction of DAI, % change from 1st dose administration ([5]; Day 10, 4 hr. post-IMQ/drug administration readings): −86.0% |
| CC(C)OC(=O)/C=C\n1cnc(-c2cc(OC(C)C)cc(C(F)(F)F)c2)n1 [Compound X-2] | < 1 µM | 68.3 ng·h/mL | < 1 µM | B:P [6]: moderate brain to plasma ratio; Kp at 2 h ([6]; rat, brain and plasma): 1.27 |
| N.N.[Cl][Pt][Cl] [cisplatin, reference compound] |  |  |  | tumor volume AUC compared to vehicle control (one-way ANOVA) [7]: no statistically significant reduction in tumor growth |
